The target of one assay is EGFR (Homo sapiens (Human), UniProt P00533). The experiment in a line: HTRF KinEASE-TK kinase assay, EGFR. It counts as biochemical. To be noted: 3 h preincubation; for remaining activity at 1 µM: 1 μM compound, read-out: % EGFR Remaining activity vs DMSO (1 μM, 3 h); for remaining activity at 10 µM: 10 μM compound, read-out: % EGFR Remaining activity vs DMSO (10 μM, 3 h); for pIC50: dose response, read-out: EGFR Inhibition IC50. The essentials: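 Buffer contained 5 mM MgCl2, 2 mM MnCl2 and 1 mM TCEP; compounds at two final concentrations, 1 and 10 uM, with 0.5% DMSO, pre-incubated with the enzyme.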
EGFR, sequence (P00533 25-1210): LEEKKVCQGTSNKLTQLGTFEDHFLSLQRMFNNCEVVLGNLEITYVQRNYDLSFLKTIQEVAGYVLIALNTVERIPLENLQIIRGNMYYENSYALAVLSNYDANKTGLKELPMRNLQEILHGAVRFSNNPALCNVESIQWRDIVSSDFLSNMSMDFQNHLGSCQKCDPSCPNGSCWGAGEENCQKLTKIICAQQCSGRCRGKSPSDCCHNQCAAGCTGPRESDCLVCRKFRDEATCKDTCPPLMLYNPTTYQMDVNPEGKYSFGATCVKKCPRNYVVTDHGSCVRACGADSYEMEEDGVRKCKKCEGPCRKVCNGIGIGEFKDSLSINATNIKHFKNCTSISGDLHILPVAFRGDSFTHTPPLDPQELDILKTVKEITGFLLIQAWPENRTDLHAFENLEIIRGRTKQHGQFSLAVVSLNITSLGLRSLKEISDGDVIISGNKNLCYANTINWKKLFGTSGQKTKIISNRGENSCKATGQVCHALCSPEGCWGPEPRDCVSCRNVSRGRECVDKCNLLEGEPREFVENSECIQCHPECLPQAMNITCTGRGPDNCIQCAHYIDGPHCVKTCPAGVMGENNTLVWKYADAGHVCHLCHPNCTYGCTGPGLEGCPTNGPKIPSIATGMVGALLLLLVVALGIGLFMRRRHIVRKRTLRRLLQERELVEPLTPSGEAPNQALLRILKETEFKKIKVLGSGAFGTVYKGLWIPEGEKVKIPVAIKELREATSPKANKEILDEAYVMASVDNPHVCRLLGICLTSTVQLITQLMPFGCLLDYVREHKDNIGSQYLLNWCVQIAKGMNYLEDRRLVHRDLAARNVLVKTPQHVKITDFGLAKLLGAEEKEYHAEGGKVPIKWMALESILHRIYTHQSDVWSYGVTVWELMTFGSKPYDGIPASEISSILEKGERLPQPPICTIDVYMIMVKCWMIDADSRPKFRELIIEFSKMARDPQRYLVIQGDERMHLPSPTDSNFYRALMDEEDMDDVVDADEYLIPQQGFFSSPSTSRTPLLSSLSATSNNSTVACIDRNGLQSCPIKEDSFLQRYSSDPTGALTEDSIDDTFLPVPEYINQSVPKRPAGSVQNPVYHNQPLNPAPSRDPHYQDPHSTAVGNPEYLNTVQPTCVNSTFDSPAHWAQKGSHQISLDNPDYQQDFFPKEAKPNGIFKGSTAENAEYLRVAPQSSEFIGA
For orientation: TR-FRET usually uses a lanthanide donor and a delayed reading to cut background.

Assay [1] concerns the target T1, BTK (Homo sapiens (Human), UniProt Q06187). The experiment in a line: HTRF KinEASE-TK kinase assay, BTK. It counts as biochemical. As to conditions: 3 h preincubation; for remaining activity at 1 µM: 1 μM compound, read-out: % BTK Remaining activity vs DMSO (1 μM, 3 h); for remaining activity at 10 µM: 10 μM compound, read-out: % BTK Remaining activity vs DMSO (10 μM, 3 h); for pIC50: dose response, read-out: BTK Inhibition IC50. The essentials:
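Read-out was the 665 nm to 620 nm ratio, taken 60 min after detection, reflecting phosphorylated biotinylated substrate. Before this, BTK reacted 45 min with substrate and ATP in kinase buffer supplemented with MnCl2 (10 mM), MgCl2 (5 mM), ATPγS (1 uM) and TCEP (1 mM).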

Another assay deals with RIPK2 (Homo sapiens (Human), UniProt O43353). As to the kind of experiment: In vitro RIPK2 inhibition. It counts as biochemical. To be noted: for remaining activity at 1 µM: read-out: % RIPK2 Remaining activity vs DMSO (1 μM, 3 h); for remaining activity at 10 µM: read-out: % RIPK2 Remaining activity vs DMSO (10 μM, 3 h).
RIPK2, sequence (O43353 whole entry, species assumed): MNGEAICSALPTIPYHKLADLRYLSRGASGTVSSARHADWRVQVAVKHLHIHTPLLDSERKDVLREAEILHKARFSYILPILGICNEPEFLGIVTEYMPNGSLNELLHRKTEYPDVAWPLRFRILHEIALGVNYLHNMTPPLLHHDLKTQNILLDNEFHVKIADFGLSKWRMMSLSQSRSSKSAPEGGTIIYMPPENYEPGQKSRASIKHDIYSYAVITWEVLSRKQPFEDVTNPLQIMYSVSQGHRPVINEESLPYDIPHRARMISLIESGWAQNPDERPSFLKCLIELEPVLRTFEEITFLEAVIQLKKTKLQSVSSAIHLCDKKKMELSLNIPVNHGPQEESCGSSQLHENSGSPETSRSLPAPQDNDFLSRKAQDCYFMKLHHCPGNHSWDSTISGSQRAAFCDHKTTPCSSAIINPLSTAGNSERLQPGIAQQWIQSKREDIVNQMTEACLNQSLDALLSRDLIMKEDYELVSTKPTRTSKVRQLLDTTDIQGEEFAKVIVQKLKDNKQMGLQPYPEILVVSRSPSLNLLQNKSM
The target of a further assay is BMX (Homo sapiens (Human), UniProt P51813). The experiment in a line: HTRF KinEASE-TK kinase assay, BMX. It counts as biochemical. As to conditions: for remaining activity at 1 µM: 1 uM compound; for remaining activity at 1 µM / remaining activity at 10 µM: 3 h preincubation; for remaining activity at 10 µM: 10 uM compound; for pIC50: dose response. The essentials:
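Phosphorylation was quantified by HTRF KinEASE-TK as the 665/620 nm ratio, read 60 min after EDTA stop with SA-XL665 (31.25 nM) and europium antibody. Before the reaction, 3.03 nM BMX was preincubated with compound for 3 hours at room temperature, and the reaction was started with biotinylated substrate plus ATP.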

Assay [2] deals with T1, BTK. As to the kind of experiment: Ramos RA1 cell lysis and immunoassay, total BTK degradation. It counts as cell-based. On the set-up: key to % BTK degradation (RAMOS, 24 h): Y: BTK bound in cells and BTK degradation occurred; concentration or dose not given beside the values. To be noted: RAMOS cells. The essentials: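 Ramos RA1 cells treated with compound or DMSO for 24 h at 37° C., lysed in RIPA, analysed by Simple Western. Total BTK normalised to β-actin, pBTK (Y223) to total-protein reagent; both expressed relative to DMSO control.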

A further assay has as its target FGFR4 (Homo sapiens (Human), UniProt P22455). The experiment in a line: HTRF KinEASE-TK kinase assay, FGFR4. It counts as biochemical. To be noted: for pIC50: dose response; for remaining activity at 1 µM: read-out: % FGFR4 Remaining activity vs DMSO (1 μM, 3 h); for remaining activity at 10 µM: read-out: % FGFR4 Remaining activity vs DMSO (10 μM, 3 h). The essentials: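 HTRF ratio (Em 665/620 nm) measured 60 min after EDTA stop with SA-XL665 (31.25 nM) and europium antibody reflects phosphorylated biotinylated substrate. Before substrate/ATP addition, 5.12 nM (0.333 ng/ul) FGFR4 sat with compound 3 h at room temperature.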

For another assay, the target named is JAK3 (Homo sapiens (Human), UniProt P52333). As to the kind of experiment: HTRF KinEASE-TK kinase assay, JAK3. It counts as biochemical. To be noted: for remaining activity at 1 µM: read-out: % JAK3 Remaining activity vs DMSO (1 μM, 3 h); for remaining activity at 10 µM: read-out: % JAK3 Remaining activity vs DMSO (10 μM, 3 h). The essentials:
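HTRF read-out: the Em665/Em620 ratio, measured 60 min after stopping with EDTA, 31.25 nM SA-XL665 and 100-fold diluted Eu-antibody, was taken as phosphorylated substrate. Beforehand, 0.21 nM JAK3 (0.0133 ng/µl) sat with compound for 3 h at room temperature, then biotinylated substrate plus ATP started the reaction.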

The results in this text go back to patent US20240018153A1, “BENZENESULFONAMIDE DERIVATIVES AND USES THEREOF” (2692372 ONTARIO, INC., priority 2020, published 2024).

Each structure is given as a SMILES string. pIC50: −log10 of the molar value.

As usually defined, the remaining activity is what remains of the control signal, in per cent. A word on the pIC50: it is the negative decadic logarithm of the IC50, by convention in mol/L.

T1 sequence (Q06187 whole entry): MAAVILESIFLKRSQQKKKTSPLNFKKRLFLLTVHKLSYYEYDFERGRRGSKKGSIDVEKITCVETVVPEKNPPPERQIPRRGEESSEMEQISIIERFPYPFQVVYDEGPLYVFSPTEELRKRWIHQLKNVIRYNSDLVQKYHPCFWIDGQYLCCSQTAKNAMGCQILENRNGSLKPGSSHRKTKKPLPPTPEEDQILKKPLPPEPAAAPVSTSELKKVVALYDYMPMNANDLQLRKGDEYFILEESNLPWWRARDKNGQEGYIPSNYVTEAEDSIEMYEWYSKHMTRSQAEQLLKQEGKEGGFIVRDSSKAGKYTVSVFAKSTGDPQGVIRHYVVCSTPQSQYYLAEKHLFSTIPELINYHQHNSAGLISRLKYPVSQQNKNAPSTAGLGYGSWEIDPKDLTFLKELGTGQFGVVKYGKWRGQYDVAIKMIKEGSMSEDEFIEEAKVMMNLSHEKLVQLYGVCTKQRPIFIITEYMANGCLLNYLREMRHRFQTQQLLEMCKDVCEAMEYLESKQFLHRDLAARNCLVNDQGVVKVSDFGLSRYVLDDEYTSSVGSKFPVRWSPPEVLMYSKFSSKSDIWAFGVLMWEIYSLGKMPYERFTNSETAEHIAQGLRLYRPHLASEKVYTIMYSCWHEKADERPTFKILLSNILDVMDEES
JAK3, sequence (P52333 781-1124): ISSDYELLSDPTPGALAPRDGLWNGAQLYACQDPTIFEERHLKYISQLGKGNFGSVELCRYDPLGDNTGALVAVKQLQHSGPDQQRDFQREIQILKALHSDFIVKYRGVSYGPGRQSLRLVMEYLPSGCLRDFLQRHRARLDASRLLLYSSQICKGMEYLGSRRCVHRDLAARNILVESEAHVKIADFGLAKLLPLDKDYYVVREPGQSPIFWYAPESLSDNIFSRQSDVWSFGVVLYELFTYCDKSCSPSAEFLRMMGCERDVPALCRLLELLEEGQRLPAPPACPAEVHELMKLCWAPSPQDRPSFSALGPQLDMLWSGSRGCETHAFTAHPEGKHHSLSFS
FGFR4, sequence (P22455 22-802): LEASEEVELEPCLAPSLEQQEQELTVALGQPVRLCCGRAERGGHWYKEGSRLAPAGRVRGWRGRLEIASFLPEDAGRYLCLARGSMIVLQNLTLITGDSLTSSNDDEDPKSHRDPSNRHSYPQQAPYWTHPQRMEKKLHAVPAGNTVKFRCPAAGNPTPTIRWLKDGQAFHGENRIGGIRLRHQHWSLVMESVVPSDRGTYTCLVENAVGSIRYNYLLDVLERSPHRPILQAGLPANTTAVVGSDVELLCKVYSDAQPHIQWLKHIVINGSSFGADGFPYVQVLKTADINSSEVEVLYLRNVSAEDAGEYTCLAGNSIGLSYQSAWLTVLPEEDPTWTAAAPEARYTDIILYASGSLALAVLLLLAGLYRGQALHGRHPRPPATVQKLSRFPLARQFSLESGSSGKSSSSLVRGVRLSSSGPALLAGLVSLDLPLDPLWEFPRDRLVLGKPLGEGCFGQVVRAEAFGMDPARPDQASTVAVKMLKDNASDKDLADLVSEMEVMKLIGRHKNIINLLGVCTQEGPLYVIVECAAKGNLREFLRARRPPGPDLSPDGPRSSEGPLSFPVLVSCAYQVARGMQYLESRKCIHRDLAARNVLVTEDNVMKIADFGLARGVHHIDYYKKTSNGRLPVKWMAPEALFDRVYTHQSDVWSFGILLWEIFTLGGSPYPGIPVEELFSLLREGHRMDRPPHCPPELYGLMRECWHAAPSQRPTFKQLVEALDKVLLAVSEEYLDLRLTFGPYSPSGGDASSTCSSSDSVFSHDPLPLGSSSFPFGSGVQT
BMX, sequence (P51813 whole entry): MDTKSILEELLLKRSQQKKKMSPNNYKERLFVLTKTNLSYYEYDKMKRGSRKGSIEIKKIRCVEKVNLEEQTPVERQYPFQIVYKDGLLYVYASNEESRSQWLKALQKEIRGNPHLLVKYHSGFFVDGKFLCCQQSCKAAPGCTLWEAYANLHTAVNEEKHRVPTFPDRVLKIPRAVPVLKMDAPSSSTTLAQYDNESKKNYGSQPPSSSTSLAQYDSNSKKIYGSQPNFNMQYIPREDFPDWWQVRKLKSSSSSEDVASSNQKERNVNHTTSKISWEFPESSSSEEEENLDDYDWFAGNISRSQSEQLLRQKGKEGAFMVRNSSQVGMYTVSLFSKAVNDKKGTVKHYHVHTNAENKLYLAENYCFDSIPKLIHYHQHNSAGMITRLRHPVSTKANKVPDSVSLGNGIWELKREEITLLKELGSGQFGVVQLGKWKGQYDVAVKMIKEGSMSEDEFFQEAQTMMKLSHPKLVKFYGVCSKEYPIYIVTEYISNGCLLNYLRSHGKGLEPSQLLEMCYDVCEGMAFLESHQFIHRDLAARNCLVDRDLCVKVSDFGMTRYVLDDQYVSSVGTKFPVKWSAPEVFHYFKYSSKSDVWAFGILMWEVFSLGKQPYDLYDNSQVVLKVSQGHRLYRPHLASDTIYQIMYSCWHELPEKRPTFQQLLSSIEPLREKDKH

For `Nc1ncnc2c1c(-c1ccc(Oc3ccccc3)cc1)nn2CCCNC(=O)c1c(F)c(F)c(F)c(F)c1S(N)(=O)=O` [Compound I-34, N-(3-(4-amino-3-(4-phenoxyphenyl)-1H-pyrazolo[3,4-d]pyrimidin-1-yl)propyl)-2,3,4,5-tetrafluoro-6-sulfamoylbenzamide], the remaining activity at 1 µM at EGFR was less than 50%; on BTK [1], less than 50%; at RIPK2, more than 90%; on BMX it was less than 50%; at FGFR4, less than 50%; at JAK3, 50 to 90%. Also, the remaining activity at 10 µM on EGFR was less than 50%; on BTK [1], less than 50%; at RIPK2, more than 90%; at BMX, less than 50%; on FGFR4, less than 50%; on JAK3, less than 50%. Besides, the pIC50 on BTK [1], at BMX and at FGFR4 was more than 6.00 throughout. The “% BTK degradation (RAMOS, 24 h)” value on BTK [2] was “Y”.

`C[S+]([O-])c1c(F)c(F)c(F)c(F)c1C(=O)N1CCC[C@@H](n2nc(-c3ccc(Oc4ccccc4)cc3)c3c(N)ncnc32)C1` (stereo partly drawn) [Compound I-36, ((R)-3-(4-amino-3-(4-phenoxyphenyl)-1H-pyrazolo[3,4-d]pyrimidin-1-yl)piperidin-1-yl)(2,3,4,5-tetrafluoro-6-(methylsulfinyl)phenyl)methanone]: the remaining activity at 1 µM on EGFR is more than 90%; at BTK [1], less than 50%; at RIPK2 it was more than 90%; at BMX, less than 50%; at FGFR4, more than 90%; on JAK3, more than 90%. Besides, the remaining activity at 10 µM at EGFR was more than 90%; on BTK [1], less than 50%; on RIPK2, more than 90%; at BMX, less than 50%; at FGFR4, less than 50%; on JAK3, 50 to 90%. Besides, the pIC50 on BTK [1] is more than 6.00. The “% BTK degradation (RAMOS, 24 h)” value on BTK [2] is “Y”.

Consider `CS(=O)(=O)c1c(F)c(F)c(F)c(F)c1C(=O)NCCn1nc(-c2ccc(Oc3ccccc3)cc2)c2c(N)ncnc21` [Compound I-38, N-(2-(4-amino-3-(4-phenoxyphenyl)-1H-pyrazolo[3,4-d]pyrimidin-1-yl)ethyl)-2,3,4,5-tetrafluoro-6-(methylsulfonyl)benzamide], for which the remaining activity at 1 µM on EGFR was less than 50%; on BTK [1] it was less than 50%; on RIPK2, more than 90%; on BMX it was less than 50%; on FGFR4, less than 50%; on JAK3, more than 90%. The remaining activity at 10 µM was less than 50% at EGFR; less than 50% at BTK [1]; more than 90% on RIPK2; less than 50% on BMX; less than 50% on FGFR4; less than 50% on JAK3. Further, the pIC50 was less than 6.00 on EGFR, more than 6.00 at BTK [1] and more than 6.00 on BMX. In addition, the “% BTK degradation (RAMOS, 24 h)” value on BTK [2] is recorded as “Y”.

For `CS(=O)(=O)c1c(F)c(F)c(F)c(F)c1C(=O)NCCCn1nc(-c2ccc(Oc3ccccc3)cc2)c2c(N)ncnc21` [Compound I-39, N-(3-(4-amino-3-(4-phenoxyphenyl)-1H-pyrazolo[3,4-d]pyrimidin-1-yl)propyl)-2,3,4,5-tetrafluoro-6-(methylsulfonyl)benzamide], the remaining activity at 1 µM is less than 50% at EGFR; less than 50% on BTK [1]; more than 90% at RIPK2; less than 50% on BMX; less than 50% on FGFR4; 50 to 90% at JAK3. In addition, the remaining activity at 10 µM is less than 50% at EGFR; less than 50% at BTK [1]; more than 90% on RIPK2; less than 50% on BMX; less than 50% at FGFR4; less than 50% at JAK3. The pIC50 on EGFR and at FGFR4 was more than 6.00 in each case. Moreover, the “% BTK degradation (RAMOS, 24 h)” value at BTK [2] is “Y”.

For `CN(C)S(=O)(=O)c1c(F)c(F)c(F)c(F)c1C(=O)NCCn1nc(-c2ccc(Oc3ccccc3)cc2)c2c(N)ncnc21` [Compound I-40, N-(2-(4-amino-3-(4-phenoxyphenyl)-1H-pyrazolo[3,4-d]pyrimidin-1-yl)ethyl)-2-(N,N-dimethylsulfamoyl)-3,4,5,6-tetrafluorobenzamide], the remaining activity at 1 µM at EGFR is less than 50%; on BTK [1], less than 50%; on RIPK2, more than 90%; at BMX, less than 50%; on FGFR4, 50 to 90%; on JAK3, more than 90%. Further, the remaining activity at 10 µM on EGFR is less than 50%; at BTK [1] it was less than 50%; on RIPK2, more than 90%; at BMX it was less than 50%; on FGFR4, less than 50%; at JAK3, 50 to 90%. The pIC50 on BTK [1] was more than 6.00. In addition, the “% BTK degradation (RAMOS, 24 h)” value on BTK [2] is “Y”.

As to `CN(C)S(=O)(=O)c1c(F)c(F)c(F)c(F)c1C(=O)NCCCn1nc(-c2ccc(Oc3ccccc3)cc2)c2c(N)ncnc21` [Compound I-41, N-(3-(4-amino-3-(4-phenoxyphenyl)-1H-pyrazolo[3,4-d]pyrimidin-1-yl)propyl)-2-(N,N-dimethylsulfamoyl)-3,4,5,6-tetrafluorobenzamide], the remaining activity at 1 µM at EGFR was less than 50%; on BTK [1] it was less than 50%; on RIPK2 it was more than 90%; at BMX it was less than 50%; on FGFR4, 50 to 90%; on JAK3 it was more than 90%. In addition, the remaining activity at 10 µM on EGFR is less than 50%; at BTK [1], less than 50%; on RIPK2 it was more than 90%; on BMX, less than 50%; on FGFR4, less than 50%; on JAK3 it was more than 90%. Further, the pIC50 against BMX was more than 6.00. Also, the “% BTK degradation (RAMOS, 24 h)” value at BTK [2] is recorded as “Y”.

Consider `Nc1ncnc2c1c(-c1ccc(Oc3ccccc3)cc1)nn2CCNC(=O)c1c(F)c(F)c(F)c(F)c1S(N)(=O)=O` [Compound I-42, N-(2-(4-amino-3-(4-phenoxyphenyl)-1H-pyrazolo[3,4-d]pyrimidin-1-yl)ethyl)-2,3,4,5-tetrafluoro-6-sulfamoylbenzamide], for which the remaining activity at 1 µM at EGFR is 50 to 90%; at BTK [1], less than 50%; on RIPK2 it was more than 90%; at BMX, less than 50%; on FGFR4, 50 to 90%; on JAK3, more than 90%. Further, the remaining activity at 10 µM on EGFR was less than 50%; at BTK [1] it was 50 to 90%; at RIPK2, more than 90%; on BMX it was less than 50%; on FGFR4, 50 to 90%; on JAK3, 50 to 90%. Besides, the pIC50 on BTK [1] and on BMX was more than 6.00 throughout. In addition, on BTK [2], the “% BTK degradation (RAMOS, 24 h)” value is recorded as “Y”.
